Assay results from the kinase profiling compilation of Christmann-Franck et al. (2016).

Key:
Experiment in all cases: radiometric filter-binding kinase assay
CSNK1D (human) = CSNK1D (human) (UniProt P48730)
SRC (human) = SRC (human) (UniProt P12931)
RIPK2 (human) = RIPK2 (human) (UniProt O43353)
MINK1 (human) = MINK1 (human) (UniProt Q8N4C8)
PRKCZ (human) = PRKCZ (human) (UniProt Q05513)
CSK (human) = CSK (human) (UniProt P41240)
JAK2 JH1 JH2 (human) = JAK2 JH1 JH2 (human) (UniProt O60674)
NTRK1 (human) = NTRK1 (human) (UniProt P04629); conditions: compound 10.0 µM
INSR (human) = INSR (human) (UniProt P06213); conditions: compound 10.0 µM
FLT1 (human) = FLT1 (human) (UniProt P17948)
TAOK1 (human) = TAOK1 (human) (UniProt Q7L7X3)
IRAK4 (human) = IRAK4 (human) (UniProt Q9NWZ3)
CAMKK2 (human) = CAMKK2 (human) (UniProt Q96RR4)
MELK (human) = MELK (human) (UniProt Q14680)
IGF1R (human) = IGF1R (human) (UniProt P08069)
GSK3B (human) = GSK3B (human) (UniProt P49841); conditions: compound 10.0 µM
EPHA2 (human) = EPHA2 (human) (UniProt P29317); conditions: compound 10.0 µM
CLK2 (human) = CLK2 (human) (UniProt P49760)
MAPK14 (human) = MAPK14 (human) (UniProt Q16539)
ROCK2 (rat) = conditions: accession and sequence are those of the human protein
MAP3K1 (human) = MAP3K1 (human) (UniProt Q13233)
MAPK11 (human) = MAPK11 (human) (UniProt Q15759)
DYRK3 (human) = DYRK3 (human) (UniProt O43781)
LCK (mouse) = conditions: accession and sequence are those of the human protein
HIPK1 (human) = HIPK1 (human) (UniProt Q86Z02)
RPS6KA3 KD1 KD2 (human) = RPS6KA3 KD1 KD2 (human) (UniProt P51812)
[1] = test system: AKT2 (human), P31751 [S474D]
MAPKAPK5 (human) = MAPKAPK5 (human) (UniProt Q8IW41)
BRSK1 (human) = BRSK1 (human) (UniProt Q8TDC3)
MARK1 (human) = MARK1 (human) (UniProt Q9P0L2)
FGFR1 (human) = FGFR1 (human) (UniProt P11362); conditions: compound 10.0 µM
[2] = target: STK11 CAB39 STRADA (human) (UniProt Q9Y376+Q7RTN6+Q15831)
MAPK15 (human) = MAPK15 (human) (UniProt Q8TD08)
MAP3K7 TAB1 (human) = MAP3K7 TAB1 (human) (UniProt Q15750+O43318)

Sequence of MINK1 (human) (Q8N4C8 whole entry, looked up): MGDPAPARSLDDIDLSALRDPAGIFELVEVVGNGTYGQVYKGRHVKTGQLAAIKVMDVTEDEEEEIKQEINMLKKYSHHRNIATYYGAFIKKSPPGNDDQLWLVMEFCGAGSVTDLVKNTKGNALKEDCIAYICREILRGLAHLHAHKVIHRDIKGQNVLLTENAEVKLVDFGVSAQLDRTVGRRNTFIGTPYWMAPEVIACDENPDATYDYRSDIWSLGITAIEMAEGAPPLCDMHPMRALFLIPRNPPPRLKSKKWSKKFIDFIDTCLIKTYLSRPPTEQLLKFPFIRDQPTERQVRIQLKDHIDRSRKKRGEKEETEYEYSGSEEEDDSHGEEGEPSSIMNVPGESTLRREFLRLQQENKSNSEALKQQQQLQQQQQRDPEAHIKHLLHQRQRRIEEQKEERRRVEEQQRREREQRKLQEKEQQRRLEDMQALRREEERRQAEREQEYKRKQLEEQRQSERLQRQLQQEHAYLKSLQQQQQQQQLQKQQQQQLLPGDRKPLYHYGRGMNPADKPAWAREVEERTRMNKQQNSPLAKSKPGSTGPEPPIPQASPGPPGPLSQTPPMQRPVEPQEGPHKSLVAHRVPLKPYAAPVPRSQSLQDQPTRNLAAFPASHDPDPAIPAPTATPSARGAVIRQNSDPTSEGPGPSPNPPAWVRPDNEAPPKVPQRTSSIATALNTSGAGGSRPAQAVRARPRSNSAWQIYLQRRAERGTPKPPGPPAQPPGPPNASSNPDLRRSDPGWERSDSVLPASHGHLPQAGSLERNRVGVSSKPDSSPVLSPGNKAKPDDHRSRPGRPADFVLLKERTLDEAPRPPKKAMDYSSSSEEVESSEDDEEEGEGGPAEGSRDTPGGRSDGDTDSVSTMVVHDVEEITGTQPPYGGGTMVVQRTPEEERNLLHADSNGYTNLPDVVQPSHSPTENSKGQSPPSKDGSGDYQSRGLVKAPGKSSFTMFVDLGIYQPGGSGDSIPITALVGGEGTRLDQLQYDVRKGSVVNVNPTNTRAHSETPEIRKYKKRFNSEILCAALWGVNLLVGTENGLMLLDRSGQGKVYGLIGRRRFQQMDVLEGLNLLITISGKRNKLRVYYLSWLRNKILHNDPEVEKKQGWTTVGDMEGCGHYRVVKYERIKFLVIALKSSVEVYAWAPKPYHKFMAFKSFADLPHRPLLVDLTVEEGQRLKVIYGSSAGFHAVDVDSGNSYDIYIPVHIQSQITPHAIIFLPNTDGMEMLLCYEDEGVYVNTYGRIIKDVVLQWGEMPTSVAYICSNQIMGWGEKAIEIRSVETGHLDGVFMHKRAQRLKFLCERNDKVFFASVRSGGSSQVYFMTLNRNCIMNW
Sequence of MARK1 (human) (Q9P0L2 whole entry, looked up): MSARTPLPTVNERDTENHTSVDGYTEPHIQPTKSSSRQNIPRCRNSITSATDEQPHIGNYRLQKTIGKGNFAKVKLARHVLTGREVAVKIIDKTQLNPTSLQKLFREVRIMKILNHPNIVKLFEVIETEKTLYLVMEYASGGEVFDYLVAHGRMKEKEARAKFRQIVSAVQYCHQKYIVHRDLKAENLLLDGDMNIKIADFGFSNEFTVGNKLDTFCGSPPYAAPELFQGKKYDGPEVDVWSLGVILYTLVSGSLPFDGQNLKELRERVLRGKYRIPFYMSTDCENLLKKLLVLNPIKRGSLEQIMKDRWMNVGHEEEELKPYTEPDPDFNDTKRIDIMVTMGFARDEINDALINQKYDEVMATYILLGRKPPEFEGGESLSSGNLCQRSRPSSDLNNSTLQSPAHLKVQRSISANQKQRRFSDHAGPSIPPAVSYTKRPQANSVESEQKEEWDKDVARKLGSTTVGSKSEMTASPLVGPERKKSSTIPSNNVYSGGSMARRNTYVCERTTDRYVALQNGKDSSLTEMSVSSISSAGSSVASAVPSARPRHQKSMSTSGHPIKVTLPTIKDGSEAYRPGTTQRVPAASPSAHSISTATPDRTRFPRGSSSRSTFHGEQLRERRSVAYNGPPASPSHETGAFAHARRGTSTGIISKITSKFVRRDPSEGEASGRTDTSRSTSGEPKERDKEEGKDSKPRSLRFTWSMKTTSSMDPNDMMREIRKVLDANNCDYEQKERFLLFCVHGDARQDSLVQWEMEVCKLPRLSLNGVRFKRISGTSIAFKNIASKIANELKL
Sequence of BRSK1 (human) (Q8TDC3 whole entry, looked up): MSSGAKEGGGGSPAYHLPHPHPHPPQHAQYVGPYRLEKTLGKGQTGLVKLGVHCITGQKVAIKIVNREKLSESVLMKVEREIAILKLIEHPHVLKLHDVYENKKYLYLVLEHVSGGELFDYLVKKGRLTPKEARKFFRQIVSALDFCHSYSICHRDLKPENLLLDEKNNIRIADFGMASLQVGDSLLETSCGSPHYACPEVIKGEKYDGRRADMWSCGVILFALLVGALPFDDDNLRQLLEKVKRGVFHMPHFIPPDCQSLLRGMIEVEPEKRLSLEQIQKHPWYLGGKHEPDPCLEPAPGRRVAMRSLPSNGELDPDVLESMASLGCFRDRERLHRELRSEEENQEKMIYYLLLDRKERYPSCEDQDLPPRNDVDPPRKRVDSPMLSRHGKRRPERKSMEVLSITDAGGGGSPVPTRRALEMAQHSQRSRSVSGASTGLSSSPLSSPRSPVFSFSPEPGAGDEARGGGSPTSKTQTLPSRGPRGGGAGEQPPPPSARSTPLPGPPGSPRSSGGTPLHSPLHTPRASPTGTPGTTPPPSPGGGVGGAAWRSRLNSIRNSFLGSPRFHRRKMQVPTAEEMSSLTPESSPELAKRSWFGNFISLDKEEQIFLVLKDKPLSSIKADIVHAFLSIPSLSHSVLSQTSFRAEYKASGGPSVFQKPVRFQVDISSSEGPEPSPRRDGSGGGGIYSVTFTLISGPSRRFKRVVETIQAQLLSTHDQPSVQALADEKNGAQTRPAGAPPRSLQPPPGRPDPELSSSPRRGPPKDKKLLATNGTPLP
Sequence of TAOK1 (human) (Q7L7X3 whole entry, looked up): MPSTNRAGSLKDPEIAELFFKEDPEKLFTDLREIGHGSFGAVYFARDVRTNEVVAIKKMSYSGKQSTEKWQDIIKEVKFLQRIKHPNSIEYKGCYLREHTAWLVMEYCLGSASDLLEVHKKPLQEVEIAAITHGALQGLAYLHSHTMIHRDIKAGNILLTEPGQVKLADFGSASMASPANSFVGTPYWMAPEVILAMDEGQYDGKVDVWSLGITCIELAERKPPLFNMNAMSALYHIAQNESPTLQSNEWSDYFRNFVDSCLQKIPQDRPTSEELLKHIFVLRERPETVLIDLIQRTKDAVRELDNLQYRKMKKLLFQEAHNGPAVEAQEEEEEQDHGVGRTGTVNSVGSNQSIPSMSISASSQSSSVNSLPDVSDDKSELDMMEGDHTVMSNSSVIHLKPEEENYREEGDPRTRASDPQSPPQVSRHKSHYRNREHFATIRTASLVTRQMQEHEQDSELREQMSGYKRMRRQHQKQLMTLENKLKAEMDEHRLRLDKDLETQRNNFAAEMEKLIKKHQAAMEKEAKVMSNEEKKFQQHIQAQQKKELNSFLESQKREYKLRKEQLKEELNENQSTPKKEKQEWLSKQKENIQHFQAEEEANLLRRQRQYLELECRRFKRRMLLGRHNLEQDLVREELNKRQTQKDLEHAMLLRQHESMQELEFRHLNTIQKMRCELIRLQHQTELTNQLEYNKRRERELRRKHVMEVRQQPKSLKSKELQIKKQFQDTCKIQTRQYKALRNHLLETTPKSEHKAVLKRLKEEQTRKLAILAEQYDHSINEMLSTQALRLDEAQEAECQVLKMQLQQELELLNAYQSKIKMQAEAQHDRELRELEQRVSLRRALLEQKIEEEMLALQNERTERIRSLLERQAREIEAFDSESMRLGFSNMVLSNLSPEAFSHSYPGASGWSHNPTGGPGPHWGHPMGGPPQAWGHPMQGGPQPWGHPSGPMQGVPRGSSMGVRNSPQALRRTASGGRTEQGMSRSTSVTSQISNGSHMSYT
Sequence of PRKCZ (human) (Q05513 whole entry, looked up): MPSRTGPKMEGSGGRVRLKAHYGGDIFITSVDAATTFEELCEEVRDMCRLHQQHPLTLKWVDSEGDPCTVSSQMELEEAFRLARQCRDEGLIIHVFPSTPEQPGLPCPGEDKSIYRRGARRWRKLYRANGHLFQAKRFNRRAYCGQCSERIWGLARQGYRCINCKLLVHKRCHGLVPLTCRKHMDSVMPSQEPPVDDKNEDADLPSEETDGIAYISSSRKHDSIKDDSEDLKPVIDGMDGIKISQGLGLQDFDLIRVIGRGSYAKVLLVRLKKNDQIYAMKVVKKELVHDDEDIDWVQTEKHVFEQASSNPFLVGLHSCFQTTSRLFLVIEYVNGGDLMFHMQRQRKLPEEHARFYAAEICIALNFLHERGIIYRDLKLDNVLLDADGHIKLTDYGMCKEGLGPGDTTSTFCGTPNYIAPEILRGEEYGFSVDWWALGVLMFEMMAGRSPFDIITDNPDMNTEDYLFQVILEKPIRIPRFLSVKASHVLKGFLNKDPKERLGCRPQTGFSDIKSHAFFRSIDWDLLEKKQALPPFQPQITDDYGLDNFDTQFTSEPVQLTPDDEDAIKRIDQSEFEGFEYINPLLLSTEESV
Sequence of CLK2 (human) (P49760 whole entry, looked up): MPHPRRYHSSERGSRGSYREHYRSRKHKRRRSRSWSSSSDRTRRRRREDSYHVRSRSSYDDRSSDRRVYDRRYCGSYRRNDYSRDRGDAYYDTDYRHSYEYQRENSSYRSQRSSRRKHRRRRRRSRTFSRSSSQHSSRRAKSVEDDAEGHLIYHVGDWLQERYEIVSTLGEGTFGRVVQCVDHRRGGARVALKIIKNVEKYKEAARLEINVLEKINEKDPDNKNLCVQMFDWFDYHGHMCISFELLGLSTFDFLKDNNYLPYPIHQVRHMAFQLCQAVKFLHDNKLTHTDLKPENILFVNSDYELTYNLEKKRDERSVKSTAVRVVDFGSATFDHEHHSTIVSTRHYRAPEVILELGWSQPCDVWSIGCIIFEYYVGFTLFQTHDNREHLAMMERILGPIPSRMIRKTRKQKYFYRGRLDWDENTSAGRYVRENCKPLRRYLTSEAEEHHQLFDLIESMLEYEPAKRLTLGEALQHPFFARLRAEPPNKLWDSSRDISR

Work on Nc1cccc2c1CN(C1CCC(=O)NC1=O)C2=O (stereo not drawn) yielded a residual activity (CSNK1D (human); compound 1.0 µM) of 102%, a residual activity (CSNK1D (human); compound 10.0 µM) of 97% and a residual activity (SRC (human); compound 1.0 µM) of 105%. The residual activity (SRC (human); compound 10.0 µM) was 114%, the residual activity (RIPK2 (human); compound 1.0 µM) was 97% and the residual activity (RIPK2 (human); compound 10.0 µM) was 106%. For the same compound, the residual activity (MINK1 (human); compound 1.0 µM) was 111%, the residual activity (MINK1 (human); compound 10.0 µM) was 118% and the residual activity (PRKCZ (human); compound 1.0 µM) was 100%. The residual activity (PRKCZ (human); compound 10.0 µM) was 108%, the residual activity (CSK (human); compound 1.0 µM) was 87% and the residual activity (CSK (human); compound 10.0 µM) was 97%. For the same compound, the residual activity (JAK2 JH1 JH2 (human); compound 1.0 µM) was 103%, the residual activity (JAK2 JH1 JH2 (human); compound 10.0 µM) was 93% and the residual activity (NTRK1 (human)) was 141%. The residual activity (INSR (human)) was 107%, the residual activity (FLT1 (human); compound 1.0 µM) was 100% and the residual activity (FLT1 (human); compound 10.0 µM) was 110%. It also gave a residual activity (TAOK1 (human); compound 1.0 µM) of 106%, a residual activity (TAOK1 (human); compound 10.0 µM) of 96% and a residual activity (IRAK4 (human); compound 1.0 µM) of 107%. For the same compound, the residual activity (IRAK4 (human); compound 10.0 µM) was 110%, the residual activity (CAMKK2 (human); compound 1.0 µM) was 92% and the residual activity (CAMKK2 (human); compound 10.0 µM) was 84%. For the same compound, the residual activity (MELK (human); compound 1.0 µM) was 94%, the residual activity (MELK (human); compound 10.0 µM) was 90% and the residual activity (IGF1R (human); compound 1.0 µM) was 106%. It also gave a residual activity (IGF1R (human); compound 10.0 µM) of 106%, a residual activity (GSK3B (human)) of 92% and a residual activity (EPHA2 (human)) of 96%. It also gave a residual activity (CLK2 (human); compound 1.0 µM) of 104%, a residual activity (CLK2 (human); compound 10.0 µM) of 98% and a residual activity (MAPK14 (human); compound 1.0 µM) of 105%. For the same compound, the residual activity (MAPK14 (human); compound 10.0 µM) was 103%, the residual activity (ROCK2 (rat); compound 1.0 µM) was 90% and the residual activity (ROCK2 (rat); compound 10.0 µM) was 88%. For the same compound, the residual activity (MAP3K1 (human); compound 1.0 µM) was 101%, the residual activity (MAP3K1 (human); compound 10.0 µM) was 97% and the residual activity (MAPK11 (human); compound 1.0 µM) was 96%. It also gave a residual activity (MAPK11 (human); compound 10.0 µM) of 106%, a residual activity (DYRK3 (human); compound 1.0 µM) of 104% and a residual activity (DYRK3 (human); compound 10.0 µM) of 99%. For the same compound, the residual activity (LCK (mouse); compound 1.0 µM) was 100%, the residual activity (LCK (mouse); compound 10.0 µM) was 99% and the residual activity (HIPK1 (human); compound 1.0 µM) was 92%. It also gave a residual activity (HIPK1 (human); compound 10.0 µM) of 101%, a residual activity (RPS6KA3 KD1 KD2 (human); compound 1.0 µM) of 93% and a residual activity (RPS6KA3 KD1 KD2 (human); compound 10.0 µM) of 101%. It also gave a residual activity ([1]; compound 1.0 µM) of 85%, a residual activity ([1]; compound 10.0 µM) of 94% and a residual activity (MAPKAPK5 (human); compound 1.0 µM) of 86%. The residual activity (MAPKAPK5 (human); compound 10.0 µM) was 87%, the residual activity (BRSK1 (human); compound 1.0 µM) was 84% and the residual activity (BRSK1 (human); compound 10.0 µM) was 94%. It also gave a residual activity (MARK1 (human); compound 1.0 µM) of 98%, a residual activity (MARK1 (human); compound 10.0 µM) of 100% and a residual activity (FGFR1 (human)) of 109%. For the same compound, the residual activity ([2]; compound 1.0 µM) was 116%, the residual activity ([2]; compound 10.0 µM) was 112% and the residual activity (MAPK15 (human); compound 1.0 µM) was 92%. The residual activity (MAPK15 (human); compound 10.0 µM) was 98%, the residual activity (MAP3K7 TAB1 (human); compound 1.0 µM) was 99% and the residual activity (MAP3K7 TAB1 (human); compound 10.0 µM) was 104%.
